US20080200531A1, “CDKI pathway inhibitors as inhibitors of tumor cell growth” (priority 2006, published 2008)

How the values were obtained:
[1] = system: NFκB p50 and p65 subunits; experiment: TransAM NFκB p65 and p50 Chemi Transcription Factor Assay (oligonucleotide binding); format: cell-based; conditions: TNFα-induced or basal
Source text: We also tested if these compounds could act as the inhibitors of NFκB, by measuring cellular levels of p50 or p65 subunits binding oligonucleotides containing NFκB consensus binding site, using ACTIVE MOTIF TransAM™ NFκB p65 Chemi and NFκB p50 Chemi Transcription Factor Assay Kits.

HT1080 p21-9 cells = experiment: FACS analysis of DNA content and GF7 mitotic staining; format: cell-based, human
Source text: The combination of p21 and SNX9-class compounds leads to both G1 and G2/M arrest, at the levels expected for the combined effects of p21 and SNX9 (FIG. 6).

HT1080 fibrosarcoma = experiment: 3-day growth inhibition assay (Hoechst 33342), HT1080; format: cell-based; conditions: Homo sapiens, HT-1080, 72 h, 3 days, read-out: growth inhibition (decrease in cell number relative to untreated cells)
Description: (§1) The assays were carried out in 96-well plates, in triplicates; the plated cell numbers for each cell line were determined in preliminary experiments to assure exponential growth over the 3-day period of the assay. The cell numbers were measured by staining DNA of attached cells with Hoechst 33342, and the results for each dose were expressed as the decrease in cell number relative to untreated cells. For some of the tumor/normal cell line combinations, the assays were repeated using CellTiter-Glo viability assay (Promega), with the same results.

[2] = system: normal fibroblasts (WI-38, BJ-EN); experiment: 3-day growth inhibition assay (Hoechst 33342), normal cells; format: cell-based, human; conditions: 5 μM; 3 days
Description: as §1

HCT116 colon carcinoma = experiment: 3-day growth inhibition assay (Hoechst 33342), HCT116; format: cell-based; conditions: Homo sapiens, HCT-116, 72 h, 3 days, read-out: growth inhibition (decrease in cell number relative to untreated cells)
Description: as §1

[3] = Plasma level of SNX9 one hour after IV injection, HPLC analysis; format: in vivo; conditions: NCr nude, mouse, one hour after IV injection of 70 mg/kg, two mice
Description: In order to determine the ability of SNX9 to remain in the blood of mice at detectable levels, we analyzed its plasma level one hour after IV injection. Two control mice were uninjected, and two mice were injected IV with 70 mg/kg SNX9 (dissolved in PBS). After one hour, the mice were euthanized and the blood collected by cardiac puncture. After plasma was prepared from the whole blood it was frozen and stored at −70° C. The frozen plasma was thawed and 100 μl was cleared of plasma protein by precipitation with 4 volumes of 100% ethanol at −20° C. for one hour. Under these conditions, SNX9 is recovered quantitatively in the ethanol soluble fraction with a minimum of plasma contamination.
The first assay was HPLC analysis. For this assay, the ethanol soluble fraction was dried under vacuum and re-dissolved in 100 μl 30% acetonitrile 0.1% trifluoroacetic acid (TFA). 4 μl of the ethanol extracted SNX9 was applied to a C18 HPLC column and eluted isocratically using a buffer of 30% acetonitrile 0.1% TFA at a flow rate of 0.3 ml/min. The elution of SNX9 was monitored at its absorption maximum wavelength of 280 nm. […]
The second assay was a biological test for cytotoxicity. […] After 72 hours the growth inhibition was measured by Hoechst staining of the cell lysate in each well of the 96 well tissue culture plate, prepared as previously described.

## Cc1[nH]c2c(Cl)cccc2c1CCN [SNX9]
[1]
  NFκB activity (p50 or p65 binding to NFκB consensus oligonucleotide): no significant effect
HT1080 p21-9 cells; SNX9-treated cells
  mitotic fraction (GF7 antibody staining): increase in the mitotic fraction
HT1080 p21-9 cells; SNX9 alone
  G2/M fraction (FACS analysis of DNA content): pronounced increase in the G2/M fraction
HT1080 fibrosarcoma
  inhibition at 5 µM: ~100%
[2]
  growth inhibition of normal cells: no effect on normal cells
HCT116 colon carcinoma
  inhibition at 5 µM: ~100%
[3]
  concentration at 1 h: ~250 µM
